{
  "source": "patent US4751217A",
  "about": "“Physiologically active substances named SEN-366” (Nippon Shinyaku Co., Ltd., priority 1984, dated 1988)",
  "type_in_all_cases": "cell-based",
  "key": {"[1]": {"system": "platelet aggregation (AA)", "experiment": "Inhibitory action against platelet aggregation, inducer arachidonic acid (AA)", "conditions": "for IC50: Oryctolagus cuniculus, Platelet, AA 150 μM, rabbit PRP; for IC50 AA 150 μM: Table 1, rabbit PRP", "method": "(§1) Inhibitory Action against Platelet Aggregation:\n(§2) (1) Materials and Method:\n(§3) The sample is tested after dissolved in dimethyl sulfoxide. The preparation is conducted so as to make the final concentration of the solvent 1%. Dimethyl sulfoxide of the same concentration is used as a control. As to inducers for platelet aggregation, ADP (final concentration: 5 μm), AA (arachidonic acid) (final concentration: 150 μM) and collagen (final concentration: 10 μg/ml) are used.\n(§4) (2) Preparation of platelet:\n(§5) Blood is taken from total neck artery of male rabbits of 2.0-2.5 kg body weight. To the blood is added 1/10 volume of 3.8% sodium citrate solution, the mixture is gently stirred, centrifuged 1300×g for 2 minutes, and the resulting supernatant liquid is used as plasma with abundant platelet (hereinafter abbreviated as PRP). The precipitate is further centrifuged at 1600×g for 10 minutes and the resulting supernatant liquid is used as plasma with poor platelet (hereinafter abbreviated as PPP).\n(§6) (3) Method for Measuring Aggregation Power:\n(§7) A measuring apparatus for platelet aggregation is used and the changes in absorbancy by the aggregation with an elapse of time are recorded.\n(§8) Thus, 200 microliters of PRP is taken, its difference between PPP is adjusted to a certain value, then 25 microliters of control solution or test solution is added, the mixture is stirred (1000 rpm) for 1 minutes, 25 microliters of aggregation inducer is added, and the changes in absorbancy are recorded. The inhibitory ratio is calculated from the following expression from the maximum aggregation ratio of the control (A in %) and that of the test solution (B in %): [formula]\n(§9) Inhibitory ratios with varied test solution concentrations are calculated and the IC50 (50% inhibitory concentration) is calculated therefrom.\n(§10) The sample is tested after dissolved in dimethyl sulfoxide. The preparation is conducted so as to make the final concentration of the solvent 1%. Dimethyl sulfoxide of the same concentration is used as a control. As to inducers for platelet aggregation, ADP (final concentration: 5 μM), AA (arachidonic acid) (final concentration: 150 μM) and collagen (final concentration: 10 μg/ml) are used.\n(§11) Blood is taken from total neck artery of male rabbits of 2.0-2.5 kg body weight. To the blood is added 1/10 volume of 3.8% citric acid solution, the mixture is gently stirred, centrifuged 1300×g for 2 minutes, and the resulting supernatant liquid is used as plasma with abundant platelet (hereinafter abbreviated as PRP). The precipitate is further centrifuged at 1600×g for 10 minutes and the resulting supernatant liquid is used as plasma with poor platelet (hereinafter abbreviated as PPP).\n(§12) Thus, 200 microliters of PRP is taken, its difference between PPP is adjusted to a certain value, then 25 microliters of control solution or test solution is added, the mixture is stirred (1000 rpm) for 1 minute, 25 microliters of aggregation inducer is added, and the changes in absorbancy are recorded. The inhibitory ratio is calculated from the following expression from the maximum aggregation ratio of the control (A in %) and that of the test solution (B in %): [formula]"}, "[2]": {"system": "platelet aggregation (ADP)", "experiment": "Inhibitory action against platelet aggregation, inducer ADP", "conditions": "for IC50: Oryctolagus cuniculus, Platelet, ADP 5 μM, rabbit PRP; for IC50 ADP 5 μM: Table 1, rabbit PRP", "method": "as §1, §2, §3, §4, §5, §6, §7, §8, §9, §10, §11, §12"}, "[3]": {"system": "platelet aggregation (collagen)", "experiment": "Inhibitory action against platelet aggregation, inducer collagen", "conditions": "for IC50 Collagen 10 μg/ml: Table 1, rabbit PRP; for IC50: Oryctolagus cuniculus, Platelet, collagen 10 μg/ml, rabbit PRP", "method": "as §1, §2, §3, §4\nBlood is taken from total neck artery of male rabbits of 2.0-2.5 kg body weight. […] The precipitate is further centrifuged at 1600×g for 10 minutes and the resulting supernatant liquid is used as plasma with poor platelet (hereinafter abbreviated as PPP).\nas §6, §7, §8, §10, §11, §12"}},
  "data": [
    {"molecule": "CC(=O)OC1CCC(OC2CCC(OC3C=CC(=O)C(C)O3)C(C)O2)C(C)O1", "note": "(stereo not drawn) [SEN-366-A1]", "values": [
      {"measurement": "IC50", "setting": "[1]; Table 1", "value": 1.2, "unit": "µg/mL"},
      {"measurement": "IC50", "setting": "[2]; Table 1", "value": 0.22, "unit": "µg/mL"},
      {"measurement": "IC50 Collagen 10 μg/ml", "setting": "[3]; listed as A1", "value": "< 0.1", "unit": "µg/mL"}
    ]},
    {"molecule": "CC(=O)OC1CCC(OC2CCC(OC3CCC(=O)C(C)O3)C(C)O2)C(C)O1", "note": "(stereo not drawn) [SEN-366-A2]", "values": [
      {"measurement": "IC50", "setting": "[1]; Table 1", "value": 6, "unit": "µg/mL"},
      {"measurement": "IC50 ADP 5 μM", "setting": "[2]; listed as A2", "value": 1.6, "unit": "µg/mL"},
      {"measurement": "IC50", "setting": "[3]; Table 1", "value": 0.54, "unit": "µg/mL"}
    ]},
    {"molecule": "CC(=O)OC1CCC(OC2CCC(OC3C=CC(=O)C(C)O3)C(C)O2)C(C)O1", "note": "(stereo not drawn) [SEN-366-A3]", "values": [
      {"measurement": "IC50 AA 150 μM", "setting": "[1]; listed as A3", "value": 1.6, "unit": "µg/mL"},
      {"measurement": "IC50 ADP 5 μM", "setting": "[2]; listed as A3", "value": 0.44, "unit": "µg/mL"},
      {"measurement": "IC50 Collagen 10 μg/ml", "setting": "[3]; listed as A3", "value": 0.47, "unit": "µg/mL"}
    ]},
    {"molecule": "CC(=O)OC1CCC(OC2CCC(OC3CCC(=O)C(C)O3)C(C)O2)C(C)O1", "note": "(stereo not drawn) [SEN-366-A4]", "values": [
      {"measurement": "IC50 AA 150 μM", "setting": "[1]; listed as A4", "value": 5.4, "unit": "µg/mL"},
      {"measurement": "IC50 ADP 5 μM", "setting": "[2]; listed as A4", "value": "> 10", "unit": "µg/mL"},
      {"measurement": "IC50 Collagen 10 μg/ml", "setting": "[3]; listed as A4", "value": 0.27, "unit": "µg/mL"}
    ]},
    {"molecule": "CC1OC(OC2CCC(OC3CCC(OC(=O)c4ccccc4)OC3C)OC2C)C=CC1=O", "note": "(stereo not drawn) [SEN-366-B1]", "values": [
      {"measurement": "IC50", "setting": "[1]; Table 1", "value": 0.32, "unit": "µg/mL"},
      {"measurement": "IC50", "setting": "[2]; Table 1", "value": 1.1, "unit": "µg/mL"},
      {"measurement": "IC50", "setting": "[3]; Table 1", "value": 0.16, "unit": "µg/mL"}
    ]},
    {"molecule": "CC1OC(OC2CCC(OC3CCC(OC(=O)c4ccccc4)OC3C)OC2C)CCC1=O", "note": "(stereo not drawn) [SEN-366-B2]", "values": [
      {"measurement": "IC50", "setting": "[1]; Table 1", "value": 1.6, "unit": "µg/mL"},
      {"measurement": "IC50", "setting": "[2]; Table 1", "value": 5.7, "unit": "µg/mL"},
      {"measurement": "IC50", "setting": "[3]; Table 1", "value": 1.7, "unit": "µg/mL"}
    ]},
    {"molecule": "CC1OC(OC2CCC(OC3CCC(OC(=O)c4ccccc4)OC3C)OC2C)C=CC1=O", "note": "(stereo not drawn) [SEN-366-B3]", "values": [
      {"measurement": "IC50 AA 150 μM", "setting": "[1]; listed as B3", "value": 0.55, "unit": "µg/mL"},
      {"measurement": "IC50 ADP 5 μM", "setting": "[2]; listed as B3", "value": 1.0, "unit": "µg/mL"},
      {"measurement": "IC50 Collagen 10 μg/ml", "setting": "[3]; listed as B3", "value": 0.17, "unit": "µg/mL"}
    ]},
    {"molecule": "CC1OC(OC2CCC(OC3CCC(OC(=O)c4ccccc4)OC3C)OC2C)CCC1=O", "note": "(stereo not drawn) [SEN-366-B4]", "values": [
      {"measurement": "IC50 AA 150 μM", "setting": "[1]; listed as B4", "value": 1.2, "unit": "µg/mL"},
      {"measurement": "IC50 ADP 5 μM", "setting": "[2]; listed as B4", "value": 6.5, "unit": "µg/mL"},
      {"measurement": "IC50 Collagen 10 μg/ml", "setting": "[3]; listed as B4", "value": 2.9, "unit": "µg/mL"}
    ]},
    {"molecule": "CCCC(=O)OC1CCC(OC2CCC(OC3C=CC(=O)C(C)O3)C(C)O2)C(C)O1", "note": "(stereo not drawn) [SEN-366-BT1]", "values": [
      {"measurement": "IC50 AA 150 μM", "setting": "[1]; listed as BT1", "value": 1.55, "unit": "µg/mL"},
      {"measurement": "IC50 ADP 5 μM", "setting": "[2]; listed as BT1", "value": 1.1, "unit": "µg/mL"},
      {"measurement": "IC50", "setting": "[3]; Table 1", "value": 0.17, "unit": "µg/mL"}
    ]},
    {"molecule": "CCCC(=O)OC1CCC(OC2CCC(OC3CCC(=O)C(C)O3)C(C)O2)C(C)O1", "note": "(stereo not drawn) [SEN-366-BT2]", "values": [
      {"measurement": "IC50 AA 150 μM", "setting": "[1]; listed as BT2", "value": 2.1, "unit": "µg/mL"},
      {"measurement": "IC50 ADP 5 μM", "setting": "[2]; listed as BT2", "value": 1.35, "unit": "µg/mL"},
      {"measurement": "IC50 Collagen 10 μg/ml", "setting": "[3]; listed as BT2", "value": 0.53, "unit": "µg/mL"}
    ]},
    {"molecule": "CCCC(=O)OC1CCC(OC2CCC(OC3C=CC(=O)C(C)O3)C(C)O2)C(C)O1", "note": "(stereo not drawn) [SEN-366-BT3]", "values": [
      {"measurement": "IC50 AA 150 μM", "setting": "[1]; listed as BT3", "value": 0.64, "unit": "µg/mL"},
      {"measurement": "IC50 ADP 5 μM", "setting": "[2]; listed as BT3", "value": 0.47, "unit": "µg/mL"},
      {"measurement": "IC50 Collagen 10 μg/ml", "setting": "[3]; listed as BT3", "value": 0.16, "unit": "µg/mL"}
    ]},
    {"molecule": "CCCC(=O)OC1CCC(OC2CCC(OC3CCC(=O)C(C)O3)C(C)O2)C(C)O1", "note": "(stereo not drawn) [SEN-366-BT4]", "values": [
      {"measurement": "IC50 AA 150 μM", "setting": "[1]; listed as BT4", "value": 5.7, "unit": "µg/mL"},
      {"measurement": "IC50 ADP 5 μM", "setting": "[2]; listed as BT4", "value": 5.3, "unit": "µg/mL"},
      {"measurement": "IC50 Collagen 10 μg/ml", "setting": "[3]; listed as BT4", "value": 1.6, "unit": "µg/mL"}
    ]},
    {"molecule": "CC1OC(OC2CCC(OC3CCC(OC(=O)c4ccc(Cl)cc4)OC3C)OC2C)C=CC1=O", "note": "(stereo not drawn) [SEN-366-CB1]", "values": [
      {"measurement": "IC50", "setting": "[1]; Table 2", "value": 1.1, "unit": "µg/mL"},
      {"measurement": "IC50", "setting": "[2]; Table 2", "value": 0.3, "unit": "µg/mL"},
      {"measurement": "IC50", "setting": "[3]; Table 2", "value": 0.06, "unit": "µg/mL"}
    ]}
  ]
}
